The test system of assay [1] is Jurkat cells. Nature of the assay: Jurkat cell adhesion system (adhesion to immobilized human fibronectin, PMA-stimulated). The following applies: concentration inhibiting by 50% the PMA-stimulated increase in number of adhered Jurkat cells on human fibronectin. It counts as cell-based. On the procedure: Evaluation of Compounds in Jurkat Cell Adhesion System
<Immobilization of Human Fibronectin in 96-Well Plate>
Human fibronectin (Becton Dickinson Biosciences) was diluted with phosphate-buffered saline (hereinafter abbreviated as PBS; Sigma) to 0.1-0.01 μg/ml, and the diluted solution was added to a 96-well plate (Becton Dickinson) at 50μ/well, and allowed to stand overnight at 4° C. On the following day, the supernatant was removed from the plate, and then PBS containing 1% bovine serum albumin (hereinafter abbreviated as BSA; Sigma) was added thereto at 100 μl/well and incubation was performed at 37° C. for 2 hours in a CO2 incubator (Hirasawa).
The supernatant was removed from each plate and Jurkat cells suspended in RPMI-1640 (Sigma) containing 1 mg/ml BSA were added at 80 μl/well for 2.5×10^5 cells/well. The compound diluted to different concentrations with RPMI-1640 containing 1 mg/ml BSA was immediately added at 10 μl/well, and then 100 nM phorbol myristate acetate (hereinafter abbreviated as PMA; Sigma) in RPMI-1640 containing 1 mg/ml BSA was added at 10 μl/well and the plate was incubated in a CO2 incubator at 37° C. for 45-60 minutes. The supernatant was removed from the plate and each well was washed several times with 100 μl/well of RPMI-1640, after which 50 mM citrate buffer (pH 5.0) containing 3.75 mM p-nitrophenol-N-acetyl-β-D-glucosaminide (Sigma) and 0.25% Triton X-100 (Sigma) were added at 60 μl/well, and the mixture was placed in a CO2 incubator and incubated at 37° C. for 45 minutes. After incubation, 50 mM glycine buffer (pH 10.4) containing 5 mM EDTA was added at 90 μl/well, and the absorbance at 405 nm was measured with an EL340 Automated Microplate Reader (BIO-TEK) to determine the adhered cell count. The concentration of each compound which inhibited the increase in the number of adhered cells by the PMA-stimulation by 50% was recorded as the IC50 (μM).

Assay [2] deals with colon-infiltrating neutrophils (myeloperoxidase enzyme activity). Nature of the assay: Oxazolone-induced colon neutrophil infiltration model. In kind it is in vivo, Balb/c mice. The following applies: Mus musculus, po, 30 mg/kg orally 30 minutes prior to intrarectal oxazolone, colon myeloperoxidase activity 4 hours after, vs oxazolone control group, read-out: Inhibitory rate (%). On the procedure: Evaluation of Compounds in Oxazolone-Induced Colon Neutrophil Infiltration Model
<Sensitization with Oxazolone>
Five- to six-week-old male Balb/c mice (Charles River Japan) were shaven at the abdomen to an approximately 2 cm square area. A 100% ethanol solution containing 3% 4-ethoxymethylene-2-phenyl-2-oxazolin-5-one (hereinafter referred to as “oxazolone”; Sigma) was applied at 150 μl onto the abdomen of each mouse.
<Preparation of Emulsion Containing Oxazolone>
Distilled water (Otsuka Pharmaceutical) was added in an equivalent volume to 100% peanut oil (Kanto Kagaku) containing 1% oxazolone, and the components were vigorously mixed with a glass syringe (Top Co.), to prepare an emulsion containing 0.5% oxazolone.
<Induction with Oxazolone>
The mice were fasted on the 3rd day after oxazolone sensitization, and were injected with 100 μl of the emulsion containing 0.5% oxazolone prepared in the way described above intrarectally at a site approximately 3 cm from the anus under ether anesthesia on the 4th day.
<Colon-Infiltrating Neutrophil Assay>
Each compound was suspended or dissolved in an aqueous solution containing 0.5% methyl cellulose (Wako), and orally administered at 30 mg/kg 30 minutes prior to the intrarectal injection of oxazolone emulsion. Four hours after the intrarectal injection of oxazolone, mice were sacrificed by cervical dislocation, and colons were extirpated, dissected in the longitudinal direction, washed with physiological saline, and transferred to ice-cooled plastic centrifugation tubes. After adding 1 ml of 50 mM potassium phosphate buffer (hereinafter abbreviated as KPB) (pH 6.0) to the tube, and the tissue were homogenized with PHYSCOTRON (Microtec Nition Co., Ltd.), 2 ml of 50 mM KPB (pH 6.0) was added and the mixture was centrifuged at 3000 rpm, 4° C. for 10 minutes and the supernatant was removed. To the resultant precipitate was added 1 ml of 50 mM KPB (pH 6.0) containing 0.5% hexadecyltrimethyl-ammonium bromide (Sigma), and freeze-thawed 3 to 5 times using liquid nitrogen and hot water, centrifuged at 3000 rpm, 4° C. for 10 minutes to yield a supernatant. The myeloperoxidase enzyme activity in the supernatant was assayed in the following manner. Specifically, to 10 μl of the obtained supernatant was added 200 μl of 50 mM KPB (pH6.0) containing 0.017% o-dianisidine (Sigma) and 0.0005% hydrogen peroxide (Wako), incubated at 37° C., and the change in absorbance at 450 nm was continuously measured for 1 minute using an EL340 Automated Microplate Reader (BIO-TEK) in kinetic mode. The units were the rate of change in absorbance per minute (mO.D./min.). With regard to the effect of each compound, the inhibitory rate (%) with respect to the oxazolone control group, i.e. the oxazolone-injected/compound-free group, was shown in the table 3.

Assay [3] has as its system DSS-induced colitis. Nature of the assay: DSS-induced colitis model. In kind it is in vivo, Balb/c mice. The following applies: 30 mg/kg orally once a day for 5-7 successive days; 1-3% DSS in water for 5-7 days. From the text: Evaluation of Compounds in DSS-Induced Colitis Model
A 1-3% solution of dextran sulfate sodium (hereinafter abbreviated as DSS; ICN) in purified water (Otsuka Pharmaceutical) was fed freely to 6- to 7-week-old male Balb/c mice (Charles River Japan) for 5-7 days to induce colitis. Disease Activity Index (hereinafter abbreviated as DAI) scored based on fecal hardness, blood content in feces and body weight change, the number of neutrophils infiltrating the colon and the length of the colon were used as indexes to evaluate compounds. Each compound was suspended or dissolved in an aqueous solution containing 0.5% methyl cellulose (Wako), and orally administered at 30 mg/kg once a day, for 5-7 successive days.

For orientation: IC50 means the concentration needed to halve the response being measured. Higher therefore signals weaker potency in that assay. The compound `CCNC(=O)CN1CCN(c2ccccc2C2CCC(C(C)(C)C)CC2)CC1.Cl` (stereo not drawn) [Example 10, 2-{4-[2-(4-t-Butylcyclohexyl)phenyl]piperazin-1-yl}-N-ethylacetamide hydrochloride] came in with an IC50 in assay [1] of 4.7 µM.

With `CCCCN1CCN(c2ccc(N3CCC(OC)CC3)cc2C2CC(C)(C)CC(C)(C)C2)CC1.Cl` [Example 32, 1-Butyl-4-[4-(4-methoxypiperidin-1-yl)-2-(3,3,5,5-tetramethylcyclohexyl)phenyl]piperazine hydrochloride], in assay [2], the inhibition in vivo at 30 mg/kg amounted to 51%. In assay [3], the “improvement in comparison with the DSS control group (DAI, number of neutrophils infiltrating the colon, length of the colon)” value (from here on “improvement in comparison”) was “particularly good improvement”.

As to `CCCN1CCN(c2ccc(N3CCOCC3)cc2C2=CC(C)(C)CC(C)(C)C2)CC1.Cl` [Example 28, 4-[4-(4-Propylpiperazin-1-yl)-3-(3,3,5,5-tetramethylcyclohex-1-enyl)phenyl]morpholine hydrochloride], the inhibition in vivo at 30 mg/kg in assay [2] was found to be 48%. Moreover, in assay [3], the “improvement in comparison” value is reported as “particularly good improvement”.

With `CCCN1CCN(c2ccccc2C2CC(C)(C)CC(C)(C)C2)CC1.Cl` [Example 31, 1-Propyl-4-[2-(3,3,5,5-tetramethylcyclohexyl)phenyl]piperazine hydrochloride], the inhibition in vivo at 30 mg/kg in assay [2] worked out at 38%. The “improvement in comparison” value in assay [3] is “particularly good improvement”. Regarding `CC(C)CN1CCN(c2ccccc2C2=CCC3(CC2)CC3)CC1.Cl` [Example 34, 1-Isobutyl-4-(2-spiro[2.5]oct-5-en-6-ylphenyl)piperazine hydrochloride], the “improvement in comparison” value in assay [3] is given as “particularly good improvement”.

On to `CCC(=O)CN1CCN(c2ccc(N3CCOCC3)cc2C2=CCC(CC)(CC)CC2)CC1.Cl` [Example 30, 1-{4-[2-(4,4-Diethylcyclohex-1-enyl)-4-morpholin-4-ylphenyl]piperazin-1-yl}butan-2-one hydrochloride], for which the inhibition in vivo at 30 mg/kg in assay [2] turned out to be 23%. In assay [3], the “improvement in comparison” value is “particularly good improvement”. The matching figures for `COC1CCN(c2ccc(N3CCN(CC4CC4)CC3)c(C3=CCC(C(C)(C)C)CC3)c2)CC1.Cl` (racemic) [Example 20, 1-[2-(4-t-Butylcyclohex-1-enyl)-4-(4-methoxypiperidin-1-yl)phenyl]-4-cyclopropylmethylpiperazine hydrochloride]: 38% and “particularly good improvement”.

In the case of `COCCN1CCN(c2ccccc2C2CCC(C(C)(C)C)CC2)CC1.Cl` (stereo not drawn) [Example 19, 1-[2-(4-t-Butylcyclohexyl)phenyl]-4-(2-methoxyethyl)piperazine hydrochloride], in assay [3], the “improvement in comparison” value was “particularly good improvement”. For the compound `CCCCN1CCN(c2ccccc2C2CCC(C(C)(C)C)CC2)CC1.Cl` (stereo not drawn) [Example 15, 1-Butyl-4-[2-(4-t-butylcyclohexyl)phenyl]piperazine hydrochloride], the IC50 in assay [1] amounted to 2.3 µM. In assay [3], the “improvement in comparison” value was “particularly good improvement”. Take `CCCCCN1CCN(c2cc(OC)ccc2C2CCC(C)(C)CC2)CC1.Cl` [Example 1, 1-[2-(4,4-Dimethylcyclohexyl)-5-methoxyphenyl]-4-pentylpiperazine hydrochloride]: the inhibition in vivo at 30 mg/kg in assay [2] amounted to 45%. Further, in assay [3], the “improvement in comparison” value is recorded as “particularly good improvement”.

As for `CCCCN1CCN(c2ccc(N3CCOCC3)cc2C2=CCC(C(C)(C)C)CC2)CC1.Cl` (racemic) [Example 18, 4-[3-(4-t-Butylcyclohex-1-enyl)-4-(4-butylpiperazine-1-yl)phenyl]morpholine hydrochloride], in assay [2], the inhibition in vivo at 30 mg/kg is 50%. Besides, the “improvement in comparison” value in assay [3] is “particularly good improvement”.

`CC1(C)CC(c2ccccc2N2CCN(CC3CC3)CC2)CC(C)(C)C1.Cl` [Example 9, 1-Cyclopropylmethyl-4-[2-(3,3,5,5-tetramethylcyclohexyl)phenyl]piperazine hydrochloride]: the inhibition in vivo at 30 mg/kg in assay [2] was 35%. For `CC1(C)C=C(c2ccccc2N2CCN(CC3CCOCC3)CC2)CC(C)(C)C1.Cl` [Example 22, 1-(Tetrahydropyran-4-ylmethyl)-4-[2-(3,3,5,5-tetramethylcyclohex-1-enyl)phenyl]piperazine hydrochloride], the inhibition in vivo at 30 mg/kg in assay [2] was found to be 28%. The “improvement in comparison” value in assay [3] is given as “particularly good improvement”. The matching figures for `CCC(=O)CN1CCN(c2ccccc2C2CCC(C)(C)CC2)CC1.Cl` [Example 17, 1-{4-[2-(4,4-Dimethylcyclohexyl)phenyl]piperazin-1-yl}butan-2-one hydrochloride]: 30% and “particularly good improvement”.

Values taken from patent publication US7410971B2, “1,2-di(cyclic)substituted benzene compounds” (Eisai R&D Management Co., Ltd., priority 2003, dated 2008).
